Measurements reported in patent EP0007672A1, “Isocyanoalkenes, process and useful intermediates for their preparation, pharmaceutical and fungicidal preparations containing those isocyanoalkenes and the use of the fungicidal preparations in agriculture” (GIST-BROCADES N.V., priority 1978, dated 1980).
≈ marks a conversion by molar mass, not a printed value. Read-outs that look alike come from different tables or passages of the source.

Columns and labels:
Test in all cases: MIC (Minimum Inhibitory Concentration)
Assay type in all cases: cell-based
Candida albicans = test system: Candida albicans
Pasteurella multocida = details: read-out: MIC values
[1] = test system: Streptococcus haemolyticus; details: read-out: MIC values
Trichophyton equinum = test system: Trichophyton equinum
[2] = test system: Trichophyton mentagrophytus
Trichophyton quickeaneum = details: Trichophyton, read-out: MIC values
Trichophyton rubrum = test system: Trichophyton rubrum
[3] = test system: Trichophyton schoenleinii; details: read-out: MIC values
[4] = test system: Trichophyton soudanese joyeux; details: read-out: MIC values
Trichophyton verrucosum = test system: Trichophyton verrucosum
Trichophyton violoceum = details: read-out: MIC values
Trichophyton tonsurans = Trichophyton tonsurans 561-50; read-out: MIC values
[5] = Candida albicans A 7, read-out: MIC values
[6] = Candida albicans A 3140, read-out: MIC values
[7] = Candida albicans A 3141, read-out: MIC values
[8] = Candida albicans A 3142, read-out: MIC values
[9] = Candida albicans A 3143, read-out: MIC values
[10] = Candida albicans A 3144, read-out: MIC values
[11] = Candida albicans A 3145, read-out: MIC values
[12] = Candida albicans A 3165, read-out: MIC values
[13] = Candida albicans A 3166, read-out: MIC values
[14] = Candida albicans A 3167, read-out: MIC values
[15] = Candida albicans A 3168, read-out: MIC values
[16] = Candida albicans A 3169, read-out: MIC values
[17] = Candida albicans A 3171, read-out: MIC values
[18] = Candida albicans A 3184, read-out: MIC values
[19] = Candida albicans A 3190, read-out: MIC values
[20] = Candida albicans A 3191, read-out: MIC values
[21] = Candida albicans A 3192, read-out: MIC values
[22] = Candida albicans A 3194, read-out: MIC values
[23] = Candida albicans A 3196, read-out: MIC values
[24] = Streptococcus haemolyticus A 1088
[25] = Trichophyton equinum 441-51, read-out: MIC values
[26] = Trichophyton equinum 856-71, read-out: MIC values
[27] = Trichophyton mentagrophytus 367-68, read-out: MIC values
[28] = Trichophyton mentagrophytus 421-67, read-out: MIC values
[29] = Trichophyton mentagrophytus A 3252, read-out: MIC values
[30] = Trichophyton mentagrophytus R 177, read-out: MIC values
[31] = Trichophyton mentagrophytus R 178, read-out: MIC values
[32] = Trichophyton mentagrophytus RRL 305, read-out: MIC values
[33] = Trichophyton rubrum 218-65, read-out: MIC values
[34] = Trichophyton rubrum 494-62, read-out: MIC values
[35] = Trichophyton rubrum A 810, read-out: MIC values
[36] = Trichophyton schoenleinii 435-63
[37] = Trichophyton soudanese joyeux 440-63
[38] = Trichophyton verrucosum 134-66, read-out: MIC values

SMILES: [C-]#[N+]C(=C1C2CC3CC(C2)CC1C3)S(=O)(=O)c1ccc(C)cc1 [Example 2, a-adamantylidene-a-(4-toluenesulphonyl) methylisocyanide]
- MIC (Candida albicans; read-out: MIC values, Candida albicans A 7): 0.8 µg/mL (≈ 2.44 µM)
- MIC (Candida albicans; read-out: MIC values, Candida albicans A 3140): 12.5 µg/mL (≈ 38.2 µM)
- MIC (Candida albicans; read-out: MIC values, Candida albicans A 3141): > 100 µg/mL
- MIC (Candida albicans; read-out: MIC values, Candida albicans A 3142): > 100 µg/mL
- MIC (Candida albicans; read-out: MIC values, Candida albicans A 3143): 0.8 µg/mL (≈ 2.44 µM)
- MIC (Candida albicans; read-out: MIC values, Candida albicans A 3144): > 100 µg/mL
- MIC (Candida albicans; read-out: MIC values, Candida albicans A 3145): > 100 µg/mL
- MIC (Candida albicans; read-out: MIC values, Candida albicans A 3165): 50 µg/mL (≈ 153 µM)
- MIC (Candida albicans; read-out: MIC values, Candida albicans A 3166): 50 µg/mL (≈ 153 µM)
- MIC (Candida albicans; read-out: MIC values, Candida albicans A 3167): 25 µg/mL (≈ 76.3 µM)
- MIC (Candida albicans; read-out: MIC values, Candida albicans A 3169): 1.5 µg/mL (≈ 4.58 µM)
- MIC (Candida albicans; read-out: MIC values, Candida albicans A 3171): > 100 µg/mL
- MIC (Candida albicans; read-out: MIC values, Candida albicans A 3184): 0.8 µg/mL (≈ 2.44 µM)
- MIC (Candida albicans; read-out: MIC values, Candida albicans A 3190): 100 µg/mL (≈ 305 µM)
- MIC (Candida albicans; read-out: MIC values, Candida albicans A 3192): 1.5 µg/mL (≈ 4.58 µM)
- MIC (Candida albicans; read-out: MIC values, Candida albicans A 3194): > 100 µg/mL
- MIC (Candida albicans; read-out: MIC values, Candida albicans A 3196): > 100 µg/mL
- MIC (Pasteurella multocida; Pasteurella multocida): > 100 µg/mL
- MIC ([1]; Streptococcus): 50 µg/mL (≈ 153 µM)
- MIC (Trichophyton equinum; read-out: MIC values, Trichophyton equinum 182-76): 50 µg/mL (≈ 153 µM)
- MIC (Trichophyton equinum; read-out: MIC values, Trichophyton equinum 441-51): 25 µg/mL (≈ 76.3 µM)
- MIC (Trichophyton equinum; read-out: MIC values, Trichophyton equinum 856-71): > 100 µg/mL
- MIC ([2]; read-out: MIC values, Trichophyton mentagrophytus 367-68): > 100 µg/mL
- MIC ([2]; read-out: MIC values, Trichophyton mentagrophytus 421-67): 50 µg/mL (≈ 153 µM)
- MIC ([2]; read-out: MIC values, Trichophyton mentagrophytus A 3252): > 100 µg/mL
- MIC ([2]; read-out: MIC values, Trichophyton mentagrophytus R 177): 100 µg/mL (≈ 305 µM)
- MIC ([2]; read-out: MIC values, Trichophyton mentagrophytus R 178): > 100 µg/mL
- MIC ([2]; read-out: MIC values, Trichophyton mentagrophytus RRL 305): 50 µg/mL (≈ 153 µM)
- MIC (Trichophyton quickeaneum): > 100 µg/mL
- MIC (Trichophyton rubrum; read-out: MIC values, Trichophyton rubrum 218-65): < 0.05 µg/mL
- MIC (Trichophyton rubrum; read-out: MIC values, Trichophyton rubrum 494-62): > 100 µg/mL
- MIC (Trichophyton rubrum; read-out: MIC values, Trichophyton rubrum A 810): 50 µg/mL (≈ 153 µM)
- MIC ([3]; Trichophyton schoenleinii): 25 µg/mL (≈ 76.3 µM)
- MIC ([4]; Trichophyton): 50 µg/mL (≈ 153 µM)
- MIC (Trichophyton verrucosum; read-out: MIC values, Trichophyton verrucosum 134-66): 25 µg/mL (≈ 76.3 µM)
- MIC (Trichophyton verrucosum; read-out: MIC values, Trichophyton verrucosum A 2922): < 0.05 µg/mL
- MIC (Trichophyton violoceum; Trichophyton): 50 µg/mL (≈ 153 µM)

SMILES: [C-]#[N+]C(=Cc1cccn1C)S(=O)(=O)c1ccc(C)cc1 [Example 30, 2-[1-isocyano-1-(4-toluenesulphonyl)-ethen-2-yl]-1-methylpyrrole]
- MIC (Candida albicans; [5]): 6 µg/mL (≈ 21 µM)
- MIC (Candida albicans; [6]): 12.5 µg/mL (≈ 43.7 µM)
- MIC (Candida albicans; [7]): 12.5 µg/mL (≈ 43.7 µM)
- MIC (Candida albicans; [8]): 12.5 µg/mL (≈ 43.7 µM)
- MIC (Candida albicans; [9]): 6 µg/mL (≈ 21 µM)
- MIC (Candida albicans; [10]): 6 µg/mL (≈ 21 µM)
- MIC (Candida albicans; [11]): 12.5 µg/mL (≈ 43.7 µM)
- MIC (Candida albicans; [12]): 6 µg/mL (≈ 21 µM)
- MIC (Candida albicans; [13]): 6 µg/mL (≈ 21 µM)
- MIC (Candida albicans; [14]): 3 µg/mL (≈ 10.5 µM)
- MIC (Candida albicans; [15]): 12.5 µg/mL (≈ 43.7 µM)
- MIC (Candida albicans; [16]): 6 µg/mL (≈ 21 µM)
- MIC (Candida albicans; [17]): 12.5 µg/mL (≈ 43.7 µM)
- MIC (Candida albicans; [18]): 6 µg/mL (≈ 21 µM)
- MIC (Candida albicans; [19]): 12.5 µg/mL (≈ 43.7 µM)
- MIC (Candida albicans; [20]): > 100 µg/mL
- MIC (Candida albicans; [21]): 6 µg/mL (≈ 21 µM)
- MIC (Candida albicans; [22]): 12.5 µg/mL (≈ 43.7 µM)
- MIC (Candida albicans; [23]): 12.5 µg/mL (≈ 43.7 µM)
- MIC (Pasteurella multocida; Pasteurella multocida A 723): 25 µg/mL (≈ 87.3 µM)
- MIC [1, 24]: 25 µg/mL (≈ 87.3 µM)
- MIC (Trichophyton equinum; [25]): 0.4 µg/mL (≈ 1.4 µM)
- MIC (Trichophyton equinum; [26]): > 100 µg/mL
- MIC [2, 27]: 50 µg/mL (≈ 175 µM)
- MIC [2, 28]: > 100 µg/mL
- MIC [2, 29]: > 100 µg/mL
- MIC [2, 30]: 100 µg/mL (≈ 349 µM)
- MIC [2, 31]: > 100 µg/mL
- MIC [2, 32]: > 100 µg/mL
- MIC (Trichophyton rubrum; [33]): 50 µg/mL (≈ 175 µM)
- MIC (Trichophyton rubrum; [34]): > 100 µg/mL
- MIC (Trichophyton rubrum; [35]): 50 µg/mL (≈ 175 µM)
- MIC [3, 36]: 25 µg/mL (≈ 87.3 µM)
- MIC [4, 37]: 6 µg/mL (≈ 21 µM)
- MIC (Trichophyton tonsurans): 0.4 µg/mL (≈ 1.4 µM)
- MIC (Trichophyton verrucosum; [38]): 6 µg/mL (≈ 21 µM)
- MIC (Trichophyton violoceum; Trichophyton violoceum 442-62): 6 µg/mL (≈ 21 µM)

SMILES: [C-]#[N+]C(=C(C)c1ccc([N+](=O)[O-])cc1)S(=O)(=O)c1ccc(C)cc1 [Example 22, 1-isocyano-2-(4-nitrophenyl)-1-(4-toluenesulphonyl)-1-propene]
- MIC (Candida albicans; [5]): 1.5 µg/mL (≈ 4.38 µM)
- MIC (Candida albicans; [6]): 3 µg/mL (≈ 8.76 µM)
- MIC (Candida albicans; [7]): 3 µg/mL (≈ 8.76 µM)
- MIC (Candida albicans; [8]): 3 µg/mL (≈ 8.76 µM)
- MIC (Candida albicans; [9]): 1.5 µg/mL (≈ 4.38 µM)
- MIC (Candida albicans; [10]): 3 µg/mL (≈ 8.76 µM)
- MIC (Candida albicans; [11]): 3 µg/mL (≈ 8.76 µM)
- MIC (Candida albicans; [12]): 3 µg/mL (≈ 8.76 µM)
- MIC (Candida albicans; [13]): 1.5 µg/mL (≈ 4.38 µM)
- MIC (Candida albicans; [14]): 1.5 µg/mL (≈ 4.38 µM)
- MIC (Candida albicans; [15]): 3 µg/mL (≈ 8.76 µM)
- MIC (Candida albicans; [16]): 3 µg/mL (≈ 8.76 µM)
- MIC (Candida albicans; [17]): 3 µg/mL (≈ 8.76 µM)
- MIC (Candida albicans; [18]): 1.5 µg/mL (≈ 4.38 µM)
- MIC (Candida albicans; [19]): 3 µg/mL (≈ 8.76 µM)
- MIC (Candida albicans; [20]): 3 µg/mL (≈ 8.76 µM)
- MIC (Candida albicans; [21]): 3 µg/mL (≈ 8.76 µM)
- MIC (Candida albicans; [22]): 1.5 µg/mL (≈ 4.38 µM)
- MIC (Candida albicans; [23]): 3 µg/mL (≈ 8.76 µM)
- MIC (Pasteurella multocida; Pasteurella multocida A 723): 6 µg/mL (≈ 17.5 µM)
- MIC [1, 24]: 0.8 µg/mL (≈ 2.34 µM)
- MIC (Trichophyton equinum; [25]): 1.5 µg/mL (≈ 4.38 µM)
- MIC (Trichophyton equinum; [26]): 25 µg/mL (≈ 73 µM)
- MIC [2, 27]: 3 µg/mL (≈ 8.76 µM)
- MIC [2, 28]: 12.5 µg/mL (≈ 36.5 µM)
- MIC [2, 29]: 12.5 µg/mL (≈ 36.5 µM)
- MIC [2, 30]: 6 µg/mL (≈ 17.5 µM)
- MIC [2, 31]: 6 µg/mL (≈ 17.5 µM)
- MIC [2, 32]: 6 µg/mL (≈ 17.5 µM)
- MIC (Trichophyton rubrum; [33]): 3 µg/mL (≈ 8.76 µM)
- MIC (Trichophyton rubrum; [34]): 6 µg/mL (≈ 17.5 µM)
- MIC (Trichophyton rubrum; [35]): 3 µg/mL (≈ 8.76 µM)
- MIC [3, 36]: 3 µg/mL (≈ 8.76 µM)
- MIC [4, 37]: 3 µg/mL (≈ 8.76 µM)
- MIC (Trichophyton tonsurans): 1.5 µg/mL (≈ 4.38 µM)
- MIC (Trichophyton verrucosum; [38]): 1.5 µg/mL (≈ 4.38 µM)
- MIC (Trichophyton violoceum; Trichophyton violoceum 442-62): 3 µg/mL (≈ 8.76 µM)
